# Measured values: publication PMC9837764 (Nature Communications, 2023)
# “And” between values parts separate entries of the source, which are not always exact repeats. Equal values may be shown once. Read-outs that look alike come from different tables or passages of the source.
# What was measured:
# SARS-CoV-2 Gamma VoC [1] = tested on: SARS-CoV-2 Gamma VoC; parameters: species or system Syrian hamsters (Mesocricetus auratus); conditions: hamster, in vivo, 140 mg/kg
# SARS-CoV-2 = assay: Cell-associated virus RNA in SARS-CoV-2-infected human primary monocytes; format: cell-based; conditions: for Cell-associated virus RNA loads, inhibition (Fig1C source data, per donor): monocytes
# Protocol: (§1) Human primary monocytes were obtained after 3 h of plastic adherence of peripheral blood mononuclear cells (PBMCs). The use of primary human cell was approved by Institutional Review Board from the Oswaldo Cruz Foundation under protocol 49971421.8.0000.5248 with signed informed consent in accordance with the Hemotherapy Service of Hospital Clementino Fraga from the Federal University of Rio de Janeiro. All volunteers were de-identified. PBMCs were isolated from healthy donors by density gradient centrifugation (Ficoll-Paque, GE Healthcare). PBMCs (2.0 × 10^6 cells) were plated onto 48-well plates (NalgeNunc) in RPMI-1640 without serum for 2–4 h. Nonadherent cells were removed, and the remaining monocytes were maintained in DMEM with 5% human serum (HS; Millipore) and penicillin/streptomycin. The purity of human monocytes was above 95%, as determined by flow cytometric analysis (FACScan; Becton Dickinson) using anti-CD3 (BD Biosciences, cat # 555342, 1:40), anti-CD16 (Southern Biotech, cat # 561313, 1:20) and APC mouse IgG2a isotype (BD Biosciences, cat # 550882, 1/40) and PE mouse IgG1 isotype (BD Biosciences, 555749, 1/20).
# Total viral RNA from a culture supernatant and/or monolayers was extracted using QIAamp Viral RNA (Qiagen®) according to the manufacturer’s instructions. Quantitative RT‒PCR was performed using GoTaq® Probe qPCR and RT-qPCR Systems (Promega) in a StepOne™ Real-Time PCR System (Thermo Fisher Scientific) ABI PRISM 7500 Sequence Detection System (Applied Biosystems). Amplifications were carried out in 25 µL reaction mixtures containing 2× reaction mix buffer, […] of each primer, 10 µM of probe, and 5 µL of RNA template. Primers, probes, and cycling conditions recommended by the Centers for Disease Control and Prevention (CDC) protocol were used to detect SARS-CoV-2[52]. The standard curve method was employed for virus quantification. For reference to the cell amounts used, the housekeeping gene RNAse P (F-5′-[…] -3′, R-5′[…] -3′, P-5′-FAM-[…] -BHQ-1-3′) was amplified. The Ct values for this target were compared to those obtained for different cell amounts, 10^7 to 10^2, for calibration.
# [2] = male, Sprague-Dawley, rat, in vivo, 250 mg/kg
# [3] = MB-905 and metabolites in mouse lungs after single oral treatment; format: in vivo, mice; conditions: individual animals
# Protocol: Fig. 5 Pharmacokinetic and pharmacodynamics in mice. […] Lung metabolites were detected consistently in terms of peak area and duration (c). Transgenic mice expressing the hACE2 receptor to SARS-CoV-2 entry at the age of 10–12 weeks were infected with 10^5 PFU intranasally and treated orally beginning 12–18 h after infection with 140 mg/kg/day. […] (e) are presented.
# Pharmacokinetics in rodent plasma was performed in CD1 mice (Mus musculus, 20–30 g) and Sprague‒Dawley rats (Rattus norvegicus, 250–300 g) of both sexes. […] After oral or intravenous administration, blood samples were collected at times of 0.25, 0.5, 1, 2, 4, 8, and 24 and 0.083, 0.25, 0.5, 1, 2, and 4 h. Parameters such as area under the curve (AUC), time taken to reach the maximum concentration (Tmax), time taken for Cmax to drop in half (T 1/2), volume of distribution, clearance, elimination constant and bioavailability (F) were evaluated. Bioavailability was calculated using the following equation: F (%) = [(intravenous dose x oral AUC)/(oral dose × intravenous AUC)] × 100. […] Animals were treated orally with MB-905 as previously described. Animals were sacrificed at different time points after treatments, and lungs were immediately removed, placed in liquid nitrogen at −80 °C and processed for further analysis. For the analysis of plasma and lung supernatant, UPLC–MS/MS equipment was used.
# [4] = tested on: Salmonella typhimurium TA 100
# SARS-CoV-2 gamma VoC [5] = tested on: SARS-CoV-2 gamma VoC; parameters: species or system K18-hACE2 mice (Mus musculus); conditions: mouse, in vivo
# SARS-CoV-2 Gamma VoC [6] = tested on: SARS-CoV-2 Gamma VoC; parameters: species or system Syrian hamsters (Mesocricetus auratus); conditions: hamster, in vivo
# IL-6 = IL-6 in supernatant of SARS-CoV-2-infected human primary monocytes; format: cell-based; conditions: infected monocytes, drugs at 10 µM, 24 h
# Protocol: as §1
# SARS-CoV-2 gamma VoC [7] = tested on: SARS-CoV-2 gamma VoC; parameters: species or system K18-hACE2 mice (Mus musculus); conditions: mouse, in vivo; remark: listed apart in the source
# [8] = Pharmacokinetics in mouse plasma; format: in vivo, CD1 mice (Mus musculus); parameters: MB-905 level (Fig5A): unit not given here; conditions: for MB-905 level (Fig5A): individual animals; for k el: read-out: Ke (converted)
# [9] = both sexes, CD1, mouse, plasma, iv, mice, 3 mg/kg (i.v.)
# [10] = both sexes, CD1, mouse, plasma, po, mice, 30 mg/kg (p.o.)
# [11] = both sexes, CD1, mouse, plasma, po, mice, 550 mg/kg (p.o.)
compound,measurement,setting,value
"c1coc(CNc2ncnc3[nH]cnc23)c1 [MB-905, N6-furfurylaminopurine]",Lung injury,SARS-CoV-2 Gamma VoC [1],protected this organ
same,Cell-associated virus RNA levels in SARS-CoV-2-infected monocytes,SARS-CoV-2; Fig. 1c,reduced cell-associated virus RNA levels in a concentration-dependent manner
same,"Cell-associated virus RNA loads, inhibition (Fig1C source data, per donor)","SARS-CoV-2; 24 h, Drug 1",41 and 30 and 63 and 20 and 2 (2×)
same,"Cell-associated virus RNA loads, inhibition (Fig1C source data, per donor)","SARS-CoV-2; 24 h, Drug 10",93 and 42 and 46 and 13 and 6 and 12
same,"Cell-associated virus RNA loads, inhibition (Fig1C source data, per donor)","SARS-CoV-2; MOI 0.1, 24 h, Drug 0.1",2 (3×) and 5 and 3 and 1
same,Tolerability,[2],tolerated MB-905 well
same,MB-905 level (Fig5B),"[3]; 140 mg/kg, 0.25 h",1864 and 2462 and 2409
same,MB-905 level (Fig5B),"[3]; 140 mg/kg, 1 h",2448 and 1951
same,MB-905 level (Fig5B),"[3]; 140 mg/kg, 3 h",1209 and 771 and 2655
same,MB-905 level (Fig5B),"[3]; 140 mg/kg, 8 h",1105 and 110 and 400
same,MB-905 level (Fig5B),"[3]; 140 mg/kg, 12 h",0
same,MB-905 level (Fig5B),"[3]; 500 mg/kg, 0.25 h",5246 and 5640 and 6065
same,MB-905 level (Fig5B),"[3]; 500 mg/kg, 1 h",4146 and 4252 and 4427
same,MB-905 level (Fig5B),"[3]; 500 mg/kg, 3 h",3576 and 2579 and 2846
same,MB-905 level (Fig5B),"[3]; 500 mg/kg, 8 h",3077 and 895 and 2729
same,MB-905 level (Fig5B),"[3]; 500 mg/kg, 12 h",575 and 53 and 0
same,"Cytotoxicity and mutagenicity, preliminary assay TA 100",[4],not observed
same,survival event code per animal (Fig5D),SARS-CoV-2 gamma VoC [5],1 (4×) and 0 (2×)
same,Body weight,SARS-CoV-2 gamma VoC [5]; 140 mg/kg/day,recovered their body weight
same,Survival,SARS-CoV-2 gamma VoC [5]; 140 mg/kg/day,survived after two weeks
same,Viral RNA levels,SARS-CoV-2 Gamma VoC [6],did not affect viral RNA levels
same,Infectious virus titers in the lungs,SARS-CoV-2 Gamma VoC [6]; 140 mg/kg,reduced infectious virus titers in the lungs
same,"IL-6 levels in the culture supernatant (Fig1E source data, per donor)",IL-6,1.3 and 0.5 and 1.0 and 2.4 and 0.8 and 1.4 and 2.3
same,LDH levels in bronchoalveolar lavage (BAL),SARS-CoV-2 gamma VoC [7],decreased
same,MB-905 level (Fig5A),"[8]; 140 mg/kg, 0.25 h",544 and 555 and 638
same,MB-905 level (Fig5A),"[8]; 140 mg/kg, 1 h",356 and 299 and 551
same,MB-905 level (Fig5A),"[8]; 140 mg/kg, 3 h",447 and 177 and 154
same,MB-905 level (Fig5A),"[8]; 140 mg/kg, 8 h",105 and 316 and 50
same,MB-905 level (Fig5A),"[8]; 140 mg/kg, 12 h",0
same,MB-905 level (Fig5A),"[8]; 500 mg/kg, 0.25 h",1228 and 1306 and 1348
same,MB-905 level (Fig5A),"[8]; 500 mg/kg, 1 h",1348 and 946 and 1312
same,MB-905 level (Fig5A),"[8]; 500 mg/kg, 3 h",894 and 544 and 652
same,MB-905 level (Fig5A),"[8]; 500 mg/kg, 8 h",833 and 340 and 437
same,MB-905 level (Fig5A),"[8]; 500 mg/kg, 12 h",103 and 13 and 0
same,AUC,[8]; [9],66.4 ng·h/mL
same,AUC(0-t),[8]; [9],55.5 ng·h/mL
same,Cmax,[8]; [9],155 ng/mL
same,Tmax,[8]; [9],4.98 min
same,clearance,[8]; [9],918 mL/min/kg
same,half-life,[8]; [9],13.2 min
same,k el,[8]; [9],0.000858 s⁻¹
same,Vd,"[8]; both sexes, CD1, mouse, plasma, iv, mice, 3 mg/kg (i.v.), read-out: Vz",19 L/kg
same,bioavailability,"[8]; both sexes, CD1, mouse, plasma, po, 30 mg/kg, mice, 30 mg/kg (p.o.), read-out: F",53.5%
same,bioavailability,"[8]; both sexes, CD1, mouse, plasma, po, 30 mg/kg, mice, read-out: Oral bioavailability",> 50%
same,bioavailability,"[8]; both sexes, CD1, mouse, plasma, po, 550 mg/kg, mice, 550 mg/kg (p.o.), read-out: F",36.1%
same,AUC,[8]; [10],356 ng·h/mL
same,AUC(0-t),[8]; [10],356 ng·h/mL
same,Cmax,[8]; [10],570 ng/mL
same,Tmax,[8]; [10],4.98 min
same,half-life,[8]; [10],66.6 min
same,k el,[8]; [10],0.000172 s⁻¹
same,AUC,[8]; [11],4390 ng·h/mL
same,AUC(0-t),[8]; [11],4390 ng·h/mL
same,Cmax,[8]; [11],1050 ng/mL
same,Tmax,[8]; [11],30 min
same,half-life,[8]; [11],163 min
same,k el,[8]; [11],6.94e-05 s⁻¹
same,CL,"[8]; mice, 30 mg/kg (p.o.)",1060.15 mL/min/kg
same,Vz,"[8]; mice, 30 mg/kg (p.o.)",102.21 L/kg
same,CL,"[8]; mice, 550 mg/kg (p.o.)",1843.18 mL/min/kg
same,Vz,"[8]; mice, 550 mg/kg (p.o.)",434.2 L/kg
